Earlier results as cited in paper PMC12932482 (Frontiers in Pharmacology, 2026).

Conditions: Obs, +CLA (with clarithromycin); ref Rengelshausen et al. (2003)

C[C@H]1O[C@@H](O[C@H]2[C@@H](O)C[C@H](O[C@H]3[C@@H](O)C[C@H](O[C@H]4CC[C@@]5(C)[C@H](CC[C@@H]6[C@@H]5C[C@@H](O)[C@]5(C)[C@@H](C7=CC(=O)OC7)CC[C@]65O)C4)O[C@@H]3C)O[C@@H]2C)C[C@H](O)[C@@H]1O [digoxin]
AUC0–3h: 11 ng·h/mL
